Where no end group is shown, it is not given here.
Columns and labels:
Type in all cases: in vivo
normal conscious sheep [1] = test: Plasma sodium, potassium and creatinine during stepped OSTN infusion; conditions: sheep n = 8, mean ± SD
Protocol: (§1) Sheep received I.V. infusions of increasing doses of ovine proOSTN (83–133), the putative 51 aa circulating peptide (at 2.5, 25 and 250 pmol/kg/min for 1 h each; Mimotopes, Melbourne, Victoria, Australia) and a vehicle control (0.9% saline) administered on separate days, ≥1 day apart, in a balanced random order.
(§2) Blood samples for analysis of plasma sodium, potassium and creatinine concentrations were taken immediately before the first dose (baseline), then hourly throughout the study. Urine volume and samples for the measurement of urine cGMP, urine cAMP, sodium, potassium and creatinine excretion were collected hourly throughout the study protocol. To estimate the contribution of renal tissues to urine cGMP/cAMP excretion, nephrogenous cGMP/cAMP was calculated using the formula [urine cG(A)MP − (glomerular filtration rate × plasma cG(A)MP/urine volume × min] (Hirata et al., [1990]).

normal conscious sheep [2] = test: Renal responses (hourly urine collections, nephrogenous cGMP/cAMP) to stepped OSTN infusion; conditions: for Urine cAMP / Urine creatinine / Urine potassium: hourly urine collection, sheep n = 8, mean ± SD
Protocol: Eight Coopworth ewes (4–6 years; 42–60 kg; Lincoln University Farm, New Zealand) were instrumented under general anaesthesia (induced by 0.5 mg/kg diazepam I.V. and 4 mg/kg ketamine I.V. and maintained with a mixture of isoflurane and oxygen) and using approved peri‐ and postoperative antibiotics (20 mg/kg cephazolin I.V.; 6.6–20 mg/kg oxytetracycline I.V.) and analgesia (4 mg/kg carprofen I.V.). Sheep were instrumented via a 50‐mm‐long neck incision, allowing cannulation of the left carotid artery (16 gauge Angiocath; Becton Dickinson, Sandy, UT, USA) for direct measurement of mean arterial pressure (MAP) and heart rate (HR). A polyethylene catheter was placed in the left jugular vein for blood sampling and recording of central venous pressure (CVP). A Swan–Ganz thermodilution catheter (Edwards Life Sciences, Irvine, CA, USA) was placed in the pulmonary artery via the jugular vein for the measurement of cardiac output (CO). The urinary bladder was catheterized per urethra for timed urine collections (Charles, Espiner, Nicholls et al., [1996]). Animals recovered for ≥5 days before commencing the study protocol.
as §1, §2

normal conscious sheep [3] = test: Plasma renin activity and aldosterone responses to stepped OSTN infusion; conditions: sheep n = 8, mean ± SD
Protocol: as §1
Venous blood samples were obtained at 30 min and immediately preceding commencement of the first infusion (baseline) and at 30 min intervals for the duration of the study day. Samples were taken into tubes on ice, centrifuged at 4°C and stored at −20°C before assaying. Following extraction over C18 SepPac cartridges (Waters Corp., Milford, MA, USA), plasma concentrations of cGMP (Charles et al., [1990]), ANP (Charles et al., [1990]), BNP (Pemberton et al., [1997]), CNP (Charles et al., [1995]) and N‐terminal proCNP (NTproCNP) (Wilson et al., [2015]), were measured by radioimmunoassay (RIA) as previously described. Non‐extracted plasma renin activity (PRA) (Dunn & Espiner, [1976]) and aldosterone (Lun et al., [1983]) were measured as previously described. Cyclic AMP was measured by enzyme‐linked immunosorbent assay (catalogue no. ADI‐900‐163; Enzo Life Sciences, Farmingdale, NY, USA). For each analyte, all samples from individual animals were measured in the same assay to avoid interassay variability. Haematocrit concentrations were measured with every blood sample taken.

[4] = 1 h, end of OSTN 2.5 pmol/kg/min I.V.
[5] = 2 h, end of OSTN 25 pmol/kg/min I.V.
[6] = 3 h, end of OSTN 250 pmol/kg/min I.V.
[7] = 4 h, 1 h after end of infusions
[8] = 5 h, 2 h after end of infusions

## SFSGFGSPLDRLSAGSVSHKGKQRKVVDHPKRRFGIPMDRIGRNRLSNSRG [OSTN]
Normal conscious sheep [1]; [4]
  Plasma creatinine: 76.6 ± 7.5 µmol/L
  Plasma potassium: 3.8 ± 0.3 mmol/L
  Plasma sodium: 147.0 ± 2.6 mmol/L
Normal conscious sheep [1]; [5]
  Plasma creatinine: 75.6 ± 6.9 µmol/L
  Plasma potassium: 4.0 ± 0.5 mmol/L
  Plasma sodium: 147.0 ± 2.5 mmol/L
Normal conscious sheep [1]; [6]
  Plasma creatinine: 76.4 ± 8.5 µmol/L
  Plasma potassium: 4.0 ± 0.5 mmol/L
  Plasma sodium: 146.9 ± 2.4 mmol/L
Normal conscious sheep [1]; [7]
  Plasma creatinine: 75.6 ± 8.9 µmol/L
  Plasma potassium: 4.1 ± 0.6 mmol/L
  Plasma sodium: 147.1 ± 2.2 mmol/L
Normal conscious sheep [1]; [8]
  Plasma creatinine: 74.6 ± 8.5 µmol/L
  Plasma potassium: 4.3 ± 0.6 mmol/L
  Plasma sodium: 146.5 ± 2.1 mmol/L
Normal conscious sheep [2]; 1 h, OSTN 2.5 pmol/kg/min I.V.
  Urine cAMP: 674 ± 367 pmol/h
  Urine creatinine: 0.635 ± 0.100 mmol/h
  Urine potassium: 15.6 ± 3.5 mmol/h
Normal conscious sheep [2]; 2 h, OSTN 25 pmol/kg/min I.V.
  Urine cAMP: 699 ± 322 pmol/h
  Urine creatinine: 0.593 ± 0.100 mmol/h
  Urine potassium: 12.7 ± 4.9 mmol/h
Normal conscious sheep [2]; 3 h, OSTN 250 pmol/kg/min I.V.
  Urine cAMP: 549 ± 211 pmol/h
  Urine creatinine: 0.586 ± 0.200 mmol/h
  Urine potassium: 9.9 ± 3.6 mmol/h
Normal conscious sheep [2]; [7]
  Urine cAMP: 452 ± 219 pmol/h
  Urine creatinine: 0.533 ± 0.200 mmol/h
  Urine potassium: 7.9 ± 3.4 mmol/h
Normal conscious sheep [2]; [8]
  Urine cAMP: 891 ± 1136 pmol/h
  Urine creatinine: 0.542 ± 0.100 mmol/h
  Urine potassium: 7.4 ± 3.6 mmol/h
Normal conscious sheep [2]; stepped OSTN infusions vs vehicle, P = 0.226
  Urine sodium excretion (natriuresis): did not increase
Normal conscious sheep [2]; stepped OSTN infusions vs vehicle, P = 0.467
  Urinary rate (diuresis): did not increase
Normal conscious sheep [2]; stepped OSTN infusions vs vehicle, dose-dependent, P = 0.002
  Urinary cGMP excretion: increased
Normal conscious sheep [3]; [4]
  Plasma aldosterone: 199 ± 156 pmol/L
  Plasma renin activity: 0.153 ± 0.070 nmol/L/h
Normal conscious sheep [3]; [5]
  Plasma aldosterone: 176 ± 137 pmol/L
  Plasma renin activity: 0.153 ± 0.065 nmol/L/h
Normal conscious sheep [3]; [6]
  Plasma aldosterone: 167 ± 157 pmol/L
  Plasma renin activity: 0.155 ± 0.075 nmol/L/h
Normal conscious sheep [3]; [7]
  Plasma aldosterone: 153 ± 142 pmol/L
  Plasma renin activity: 0.186 ± 0.109 nmol/L/h
Normal conscious sheep [3]; [8]
  Plasma aldosterone: 192 ± 130 pmol/L
  Plasma renin activity: 0.241 ± 0.181 nmol/L/h

From publication PMC11291853, “Haemodynamic, hormonal and renal actions of osteocrin in normal sheep” (Experimental Physiology, 2024)
